ChEMBL document CHEMBL1201862, “PubChem BioAssay data set” (2004)
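96-well plates; 48 h exposure; 5 concentrations. Endpoints by linear interpolation between flanking doses. Not reached: highest tested concentration assigned. Abbreviation: GI50, concentration required for 50% inhibition of growth.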 The source made the active and inactive calls. Cut-off read from the data, not from the text of the source: active = GI50 up to about 1.1 µM and inactive = higher.

Experiments:
Assay in all cases: NCI anticancer screen, dose series, 48 h
LOX IMVI = test system: LOX IMVI
Malme-3M = test system: Malme-3M
CCRF-CEM = test system: CCRF-CEM
UACC-62 = test system: UACC-62
XF498 = test system: XF498
SNB-19 = test system: SNB-19
HL-60 = test system: HL-60
MOLT-4 = test system: MOLT-4
KM-20L2 = test system: KM-20L2
IGROV-1 = test system: IGROV-1
LXFL 529 = test system: LXFL 529
U-251 = test system: U-251
OVCAR-4 = test system: OVCAR-4
OVCAR-5 = test system: OVCAR-5
SK-MEL-5 = test system: SK-MEL-5
SW-620 = test system: SW-620
HOP-62 = test system: HOP-62
NCI-H226 = test system: NCI-H226
HOP-18 = test system: HOP-18
SN12C = test system: SN12C

Measured: GI50

CNC(=O)CN1CC(=O)N(C)C(=O)C1
inactive: LOX IMVI > 100 µM | Malme-3M > 100 µM | CCRF-CEM > 100 µM | UACC-62 > 100 µM | XF498 > 100 µM | SNB-19 > 100 µM | HL-60 > 100 µM | MOLT-4 > 100 µM | KM-20L2 > 100 µM | IGROV-1 > 100 µM | LXFL 529 > 100 µM | U-251 > 100 µM | OVCAR-4 > 100 µM | OVCAR-5 > 100 µM | SK-MEL-5 > 100 µM | SW-620 > 100 µM | HOP-62 > 100 µM | NCI-H226 > 100 µM

CC1(C)Cc2c(C#N)c(N)c3c(c2CO1)C(=O)OC3=O
inactive: LOX IMVI > 100 µM | Malme-3M > 100 µM | CCRF-CEM > 100 µM | UACC-62 > 100 µM | XF498 > 100 µM | HOP-18 > 100 µM | SNB-19 > 100 µM | HL-60 > 100 µM | MOLT-4 > 100 µM | SN12C > 100 µM | KM-20L2 > 100 µM | IGROV-1 > 100 µM | LXFL 529 > 100 µM | U-251 > 100 µM | OVCAR-4 > 100 µM | OVCAR-5 > 100 µM | SK-MEL-5 > 100 µM | SW-620 > 100 µM | HOP-62 > 100 µM | NCI-H226 > 100 µM
